Reference: the supplement of paper PMC6045584
± gives the standard deviation of the averaged measurements.

compound: O=c1[nH]cc(F)c(=O)[nH]1 [FLUOROURACIL]; test: surviving fraction relative to DMSO-only wells; higher = less growth inhibition; details: 50 nM; exposure time: 5 days
Outline: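 Tumour cell lines in log phase were plated in 384-well plates at 250–500 cells per well, then, after 24 hours, exposed continuously for five days to inhibitors at 0.5, 1, 5, 10, 50, 100, 500 and 1000 nM. Viability came from CellTiter-Glo luminescence, and surviving fraction is that signal normalised to the median of DMSO-only wells. Plates were read after 10 minutes at room temperature, and each line, screened three times, was kept only when replicate Pearson r was >0.7 and median Z' was >0.3.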

In order of falling surviving fraction:
1. HCC78 LUNG  1.28 ± 0.093
2. LNCAP PROSTATE  1.17 ± 0.022
3. HOSMNG BONE  1.12 ± 0.13
4. SG43 HEADNECK  1.1 ± 0.22
5. 22RV1 PROSTATE  1.09 ± 0.053
6. CHLA90 AUTONOMIC GANGLIA  1.07 ± 0.054
7. NY BONE  1.07 ± 0.02
8. OS25HAL BONE  1.05 ± 0.082
9. SUM44 BREAST  1.05 ± 0.12
10. JURKAT HAEMATOPOIETIC AND LYMPHOID TISSUE  1.04 ± 0.069
11. HOS BONE  1.03 ± 0.039
12. HUO3N1 BONE  1.03 ± 0.059
13. MDAMB157 BREAST  1.02 ± 0.03
14. SCC47 HEADNECK  1.02 ± 0.048
15. SCC003 HEADNECK  1.02 ± 0.12
16. U2OS BONE  1.01 ± 0.011
17. OSHN BONE  1.007 ± 0.0011
18. CAL51 BREAST  1 ± 0.057
19. HCC1806 BREAST  0.992 ± 0.069
20. HU09 BONE  0.985 ± 0.092
21. MCF7 BREAST  0.973 ± 0.11
22. PCI30 HEADNECK  0.97 ± 0.067
23. CADOES1 SOFT TISSUE  0.968 ± 0.03
24. CAL120 BREAST  0.967 ± 0.015
25. HT1080 SOFT TISSUE  0.965 ± 0.061
26. MDAMB231 BREAST  0.961 ± 0.035
27. HSSYII SYNOVIAL  0.942 ± 0.016
28. JIMT1 BREAST  0.94 ± 0.038
29. CASKI CERVIX  0.92 ± 0.046
30. NOS1 BONE  0.91 ± 0.12
31. SG31 HEADNECK  0.893 ± 0.048
32. SNU475 LIVER  0.886 ± 0.021
33. S68 BREAST  0.87 ± 0.13
34. SG32 HEADNECK  0.864 ± 0.056
35. BT20 BREAST  0.844 ± 0.079
36. MDAMB436 BREAST  0.84 ± 0.12
37. RDES SOFT TISSUE  0.788 ± 0.19
38. SG28 HEADNECK  0.756 ± 0.013
39. SCC36 HEADNECK  0.739 ± 0.095
40. MFM223 BREAST  0.719 ± 0.014
41. SJSA1 BONE  0.135 ± 0.008

same assay, conditions: 100 nM; exposure time: 5 days

In order of rising surviving fraction:
1. RDES SOFT TISSUE  0.632 ± 0.01
2. SG32 HEADNECK  0.716 ± 0.098
3. S68 BREAST  0.749 ± 0.034
4. SG28 HEADNECK  0.756 ± 0.12
5. MFM223 BREAST  0.772 ± 0.062
6. SCC36 HEADNECK  0.775 ± 0.029
7. SUM44 BREAST  0.788 ± 0.041
8. MDAMB436 BREAST  0.815 ± 0.029
9. SJSA1 BONE  0.823 ± 0.018
10. BT20 BREAST  0.836 ± 0.049
11. SCC003 HEADNECK  0.881 ± 0.036
12. JIMT1 BREAST  0.884 ± 0.062
13. SNU475 LIVER  0.892 ± 0.025
14. CAL51 BREAST  0.904 ± 0.017
15. SG43 HEADNECK  0.905 ± 0.073
16. HSSYII SYNOVIAL  0.911 ± 0.059
17. CADOES1 SOFT TISSUE  0.912 ± 0.098
18. MDAMB231 BREAST  0.914 ± 0.041
19. CASKI CERVIX  0.916 ± 0.066
20. CAL120 BREAST  0.938 ± 0.032
21. HCC1806 BREAST  0.939 ± 0.065
22. HU09 BONE  0.941 ± 0.051
23. NOS1 BONE  0.943 ± 0.073
24. SCC47 HEADNECK  0.945 ± 0.051
25. U2OS BONE  0.966 ± 0.083
26. MDAMB157 BREAST  0.978 ± 0.017
27. OSHN BONE  0.9777 ± 0.0071
28. SG31 HEADNECK  0.981 ± 0.16
29. PCI30 HEADNECK  0.981 ± 0.082
30. MCF7 BREAST  0.986 ± 0.032
31. HUO3N1 BONE  0.99 ± 0.046
32. HT1080 SOFT TISSUE  0.991 ± 0.021
33. NY BONE  0.993 ± 0.018
34. HOS BONE  1.01 ± 0.034
35. JURKAT HAEMATOPOIETIC AND LYMPHOID TISSUE  1.03 ± 0.061
36. CHLA90 AUTONOMIC GANGLIA  1.04 ± 0.084
37. 22RV1 PROSTATE  1.104 ± 0.011
38. HCC78 LUNG  1.1 ± 0.15
39. LNCAP PROSTATE  1.12 ± 0.021
40. OS25HAL BONE  1.15 ± 0.014
41. HOSMNG BONE  1.19 ± 0.042

same assay, conditions: 500 nM; exposure time: 5 days

In order of falling surviving fraction:
1. SJSA1 BONE  1.44 ± 0.026
2. RDES SOFT TISSUE  1.3 ± 0.11
3. BT20 BREAST  1.09 ± 0.049
4. JURKAT HAEMATOPOIETIC AND LYMPHOID TISSUE  1.07 ± 0.022
5. HOSMNG BONE  1.03 ± 0.031
6. OSHN BONE  0.989 ± 0.014
7. MDAMB231 BREAST  0.986 ± 0.021
8. CAL120 BREAST  0.983 ± 0.043
9. SUM44 BREAST  0.982 ± 0.05
10. SG43 HEADNECK  0.977 ± 0.088
11. HUO3N1 BONE  0.973 ± 0.036
12. HCC78 LUNG  0.973 ± 0.1
13. LNCAP PROSTATE  0.964 ± 0.18
14. PCI30 HEADNECK  0.959 ± 0.06
15. 22RV1 PROSTATE  0.957 ± 0.15
16. JIMT1 BREAST  0.948 ± 0.066
17. MDAMB157 BREAST  0.943 ± 0.044
18. OS25HAL BONE  0.939 ± 0.032
19. NY BONE  0.934 ± 0.025
20. CAL51 BREAST  0.915 ± 0.015
21. CHLA90 AUTONOMIC GANGLIA  0.91 ± 0.12
22. HSSYII SYNOVIAL  0.906 ± 0.028
23. CADOES1 SOFT TISSUE  0.905 ± 0.055
24. SG31 HEADNECK  0.903 ± 0.059
25. SCC47 HEADNECK  0.854 ± 0.047
26. U2OS BONE  0.843 ± 0.051
27. MCF7 BREAST  0.837 ± 0.054
28. SNU475 LIVER  0.826 ± 0.081
29. HOS BONE  0.8203 ± 0.0081
30. CASKI CERVIX  0.801 ± 0.045
31. SG32 HEADNECK  0.8 ± 0.095
32. NOS1 BONE  0.799 ± 0.065
33. SG28 HEADNECK  0.781 ± 0.059
34. MFM223 BREAST  0.738 ± 0.036
35. HCC1806 BREAST  0.737 ± 0.12
36. MDAMB436 BREAST  0.722 ± 0.031
37. SCC003 HEADNECK  0.6943 ± 0.005
38. HU09 BONE  0.693 ± 0.091
39. S68 BREAST  0.656 ± 0.16
40. HT1080 SOFT TISSUE  0.637 ± 0.063
41. SCC36 HEADNECK  0.624 ± 0.076

same assay, conditions: 1000 nM; exposure time: 5 days

In order of rising surviving fraction:
1. SJSA1 BONE  0.116 ± 0.001
2. HT1080 SOFT TISSUE  0.406 ± 0.019
3. HCC78 LUNG  0.432 ± 0.036
4. SG32 HEADNECK  0.442 ± 0.096
5. S68 BREAST  0.465 ± 0.061
6. SCC36 HEADNECK  0.529 ± 0.047
7. CASKI CERVIX  0.555 ± 0.033
8. HCC1806 BREAST  0.601 ± 0.033
9. HU09 BONE  0.604 ± 0.031
10. MDAMB436 BREAST  0.625 ± 0.013
11. HOS BONE  0.639 ± 0.032
12. MFM223 BREAST  0.667 ± 0.032
13. U2OS BONE  0.674 ± 0.043
14. SG28 HEADNECK  0.693 ± 0.068
15. NOS1 BONE  0.694 ± 0.081
16. 22RV1 PROSTATE  0.705 ± 0.18
17. MCF7 BREAST  0.707 ± 0.033
18. SUM44 BREAST  0.726 ± 0.07
19. LNCAP PROSTATE  0.73 ± 0.11
20. SNU475 LIVER  0.741 ± 0.066
21. CAL51 BREAST  0.763 ± 0.018
22. CADOES1 SOFT TISSUE  0.775 ± 0.081
23. CAL120 BREAST  0.803 ± 0.024
24. OS25HAL BONE  0.808 ± 0.032
25. NY BONE  0.821 ± 0.014
26. MDAMB157 BREAST  0.836 ± 0.059
27. JURKAT HAEMATOPOIETIC AND LYMPHOID TISSUE  0.842 ± 0.057
28. HSSYII SYNOVIAL  0.853 ± 0.02
29. MDAMB231 BREAST  0.865 ± 0.022
30. JIMT1 BREAST  0.866 ± 0.076
31. SCC003 HEADNECK  0.87 ± 0.13
32. OSHN BONE  0.875 ± 0.029
33. SG31 HEADNECK  0.876 ± 0.054
34. SG43 HEADNECK  0.879 ± 0.054
35. CHLA90 AUTONOMIC GANGLIA  0.886 ± 0.09
36. HUO3N1 BONE  0.91 ± 0.029
37. BT20 BREAST  0.929 ± 0.1
38. PCI30 HEADNECK  0.931 ± 0.034
39. SCC47 HEADNECK  0.956 ± 0.057
40. HOSMNG BONE  1.02 ± 0.037
41. RDES SOFT TISSUE  1.51 ± 0.22
